# Assay results from patent publication US20230099837A1, “COMPOSITIONS AND METHODS FOR TREATING NEURODEGENERATIVE DISORDERS WITH RIPK1/RIPK3 INHIBITORS” (Arizona Board of Regents on Behalf of the University of …, priority 2020, published 2023).
# Entries after “also recorded” stand apart in the source; their conditions may differ.
# How the values were obtained:
# Format in all cases: cell-based
# HT-29 cells = experiment: Necroptosis flow assay (Annexin V / propidium iodide staining, flow cytometry); settings: 100 μM compound 30 min before induction with TNF-a/Z-VAD-fmk/SM-164 for 7 hours, vs DMSO
# Description: Necroptosis was allowed to proceed for 7 hours (hrs) before Annexin V and propidium iodide staining and flow cytometry analysis (FIG. 3). Cells staining positive for either Annexin V or propidium iodide were quantified as necroptotic cells (FIG. 1F). […] Docking results from RMITC03 and RMITC09 indicate most interactions are driven through hydrophobic interactions with a few hydrogen bonds interacting with the backbone of the protein (FIG. 1D-E).
# HT-29 cells were grown in DMEM (Corning 10-013-CV) with 10% FBS (HyClone SH3091003)_and incubated at 37° C. and 5% CO2. […] Necroptosis was induced with 25 ng/mL TNF-a (Prospec CYT-223), 20_μM Z-VAD-fmk (AdooQ Bioscience A12373), and 0.1 μM SM-164 (AdooQ Bioscience A15800) for 7 hours in an incubator at 37° C. and 5% CO2. HT-29 cells were trypsinized (Corning 25-053-CI) and washed with DPBS (Corning 21-031-CV) (see, Bundscherer, A. et al. Anticancer Research 33, 3201-3204 (2013)). Cells were processed and stained with Annexin V and propidium iodide as described by manufacturer's protocol in the eBioscience™ Annexin V-FITC Apoptosis Detection Kit (Invitrogen BMS500FI-500). Flow cytometry was performed with MACSQuant® Analyzer 10 and data was processed with Flowlogic™ flow cytometry analysis software.
# RIPK1 = experiment: Western blot, total RIPK1 in HT-29 cells; settings: 100 μM, necroptosis induced 3 hrs, normalized to b-actin
# Description: (§1) If RMITC03 and RMITC09 are disrupting the protein-protein interactions between RIPK3 and MLKL, then the effect of such inhibition should be observed in the activation of MLKL. To test this, HT-29 cells were treated with 100 μM of each compound for 30 min before necroptosis induction. Cells were harvested after 3 hrs with RIPA buffer in order to determine amount of inhibition at each stage of the necroptotic signaling molecules. When comparing the amounts of RIPK1, RIPK3, and MLKL in DMSO treated necroptosis activated cells (T/S/Z) against non necroptosis activated cells (Non-treated samples), there is no statistically significant difference in the amounts of these proteins (FIG. 6A-B).
# (§2) HT-29 cells were grown as described above and plated on a 6 well plate. After incubating overnight, cells were incubated with 100 μM of noted compounds in FIG. 3 for 30 min._Necroptosis was induced in the cells for 3 hours, as described in Necroptosis flow assay section, before harvesting with 75 μL RIPA buffer system (Santa Cruz sc-24948) containing 2 mM PMSF, 1 mM Sodium Orthovanadate, and 1% final volume of protease inhibitor. Samples were_centrifuged for 10 min at 20000×g and 4° C. […]
# (§3) The secondary Anti-rabbit IgG, HRP-linked antibody (Cell Signaling Technology #7074S) was_used at a dilution of 1:1500 in PBS-T with 5% BSA. […] Data_were quantified with ImageLab™ software. […]
# RIPK3 = experiment: Western blot, total RIPK3 in HT-29 cells; settings: 100 μM, necroptosis induced 3 hrs, normalized to b-actin
# Description: as §1, §2, §3
# MLKL = experiment: Western blot, total MLKL in HT-29 cells; settings: 100 μM, necroptosis induced 3 hrs, normalized to b-actin
# Description: as §1, §2, §3
# Phospho-RIPK1 (Ser166) = experiment: Western blot, phosphorylated RIPK1 in HT-29 cells; settings: 100 μM, necroptosis induced 3 hrs, normalized to b-actin
# Description: Autophosphorylation of RIPK1 at Ser166 facilitates RIPK1 kinase activity to induce cell_death (see, Meng, H. Y. et al. Proceedings of the National Academy of Sciences of the United States of America 115, E2001-E2009 (2018)). As such, phosphorylation at Ser166 was used to detect activation of necroptosis. […] Similarly, in the non-necroptosis activated on treated sample, there is also no phosphorylated RIPK1 signal. When comparing the DMSO sample to RMITC03 and RMITC09 treated samples, there is a large amount of activated phosphorylated RIPK1 with no difference between the DMSO control and RMITC03 and RMITC09 compounds.
# as §2, §3
# Phospho-RIPK3 (Ser227) = experiment: Western blot, phosphorylated RIPK3 in HT-29 cells; settings: 100 μM, necroptosis induced 3 hrs, normalized to b-actin
# Description: As previously reported, RIPK3 activation from necroptotic stimulus can be readily and accurately measured by phosphorylation at Ser227 (see, Chen, W. Z. et al. Journal of Biological Chemistry 288, 16247-16261 (2013)).
# as §2, with “C. The supernatant was mixed with 25 μL of NuPAGE_LDS sample buffer dye 4× containing 0.1 M DTT and heated for 10 min at 90° C. SDS-PAGE_separation and membrane transfer were performed as described under the CETSA protocol.” for “C.”
# as §3
# Phospho-MLKL (Ser358) = experiment: Western blot, phosphorylated MLKL in HT-29 cells; settings: 100 μM, necroptosis induced 3 hrs, normalized to b-actin
# Description: RIPK3 is known to activate MLKL through phosphorylation at Ser358 for necroptotic cell death (see, Sun, L. M. et al. Cell 148, 213-227 (2012)). Therefore, the amount of phosphorylated MLKL at Ser358 was used to determine if any inhibition of MLKL activation occurred.
# as §2, with “C. The supernatant was mixed with 25 μL of NuPAGE_LDS sample buffer dye 4× containing 0.1 M DTT and heated for 10 min at 90° C. SDS-PAGE_separation and membrane transfer were performed as described under the CETSA protocol.” for “C.”
# as §3
Structure (SMILES),inhibitory effect on necroptosis (cells positive for Annexin V or propidium iodide) (HT-29 cells),amount of RIPK1 compared to DMSO (RIPK1),amount of RIPK3 compared to DMSO (RIPK3),amount of MLKL compared to DMSO (MLKL),phosphorylated RIPK1 (Ser166) signal compared to DMSO (Phospho-RIPK1 (Ser166)),phosphorylated RIPK3 (Ser227) compared to DMSO (Phospho-RIPK3 (Ser227)),phosphorylated MLKL (Ser358) compared to DMSO (Phospho-MLKL (Ser358))
CC(C)S(=O)(=O)c1ccc2nccc(Nc3ccc4scnc4c3)c2c1 [GSK'872],largest inhibition of necroptosis,no significant difference,no significant difference,no significant difference,significant decrease; also recorded: no observable phosphorylated RIPK11 signal,significant decrease; also recorded: Inhibition of activated phosphorylated RIPK3 at Ser227,significant decrease; also recorded: lowest levels of phosphorylated MLKL
CN1C(=O)C(Cc2c[nH]c3ccccc23)NC1=S (stereo not shown) [Nec-1],,no significant difference,no significant difference,no significant difference,significant decrease; also recorded: no observable phosphorylated RIPK11 signal,did not completely inhibit activation of phosphorylated RIPK3,significant decrease; also recorded: lowest levels of phosphorylated MLKL
